In ChEMBL document CHEMBL1147702, “N-Benzylbenzamides: a new class of potent tyrosinase inhibitors” (Bioorg Med Chem Lett, 2006):

Target: T1, Tyrosinase (Agaricus bisporus, UniProt O42713)
T1 sequence (O42713 whole entry): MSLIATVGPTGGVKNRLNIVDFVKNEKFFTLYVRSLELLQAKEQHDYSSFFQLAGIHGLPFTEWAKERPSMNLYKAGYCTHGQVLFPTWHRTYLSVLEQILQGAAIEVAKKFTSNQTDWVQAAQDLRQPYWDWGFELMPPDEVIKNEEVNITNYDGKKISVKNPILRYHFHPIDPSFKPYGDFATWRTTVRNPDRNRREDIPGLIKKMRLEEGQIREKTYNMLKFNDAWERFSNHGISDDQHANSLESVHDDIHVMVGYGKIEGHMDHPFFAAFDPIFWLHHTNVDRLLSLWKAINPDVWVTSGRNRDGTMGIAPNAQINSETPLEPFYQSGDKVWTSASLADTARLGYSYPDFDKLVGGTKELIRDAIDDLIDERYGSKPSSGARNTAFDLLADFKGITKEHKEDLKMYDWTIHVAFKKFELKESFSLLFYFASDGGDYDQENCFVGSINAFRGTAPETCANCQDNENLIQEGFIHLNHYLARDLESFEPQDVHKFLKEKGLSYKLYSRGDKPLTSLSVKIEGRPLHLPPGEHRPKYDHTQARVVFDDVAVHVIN
Description: Inhibition of mushroom tyrosinase

Structure (SMILES) | IC50 [µM] | Ki [nM]
O=C(NCc1ccccc1)c1ccc(O)c(O)c1 | > 2000 | –
O=C(NCc1cc(O)c(O)c(O)c1)c1ccc(O)cc1O | 550 | –
O=C(NCc1ccccc1)c1cc(O)cc(O)c1 | 700 | –
O=C(NCc1ccc(O)cc1)c1cc(O)cc(O)c1 | 710 | –
O=C(NCc1ccc(O)cc1)c1ccc(O)cc1O | 1820 | –
O=C(NCc1cc(O)c(O)c(O)c1)c1cc(O)c(O)c(O)c1 | 555 | –
O=C(NCc1ccc(O)cc1O)c1cc(O)c(O)c(O)c1 | 17 | –
O=C(NCc1ccccc1)c1ccc(O)cc1O | 1660 | –
O=C(NCc1ccc(O)cc1O)c1ccc(O)cc1O | 29 | –
O=C(NCc1ccccc1)c1cc(O)c(O)c(O)c1 | 780 | –
O=C(NCc1ccc(O)cc1)c1cc(O)c(O)c(O)c1 | 1180 | –
O=C(NCc1ccc(O)cc1)c1ccc(O)c(O)c1 | > 2000 | –
O=C(NCc1ccc(O)cc1O)c1cc(O)cc(O)c1 | 2.2 | 1300
O=C(NCc1cc(O)c(O)c(O)c1)c1ccc(O)c(O)c1 | 280 | –
O=C(NCc1ccc(O)cc1O)c1ccc(O)c(O)c1 | 11 | –
O=C(NCc1cc(O)c(O)c(O)c1)c1cc(O)cc(O)c1 | 705 | –
O=C(NCc1ccccc1)c1ccccc1 | 1990 | –
